Assay [1] concerns CD8-MerTK in Ba/F3-CDM cells. Kind of assay: In cell MER kinase assay, Ba/F3-CDM cell proliferation without IL-3 (Celltiter-Glo). The class given is cell-based, murine. To be noted: 48 hours compound treatment, read-out: Cell growth inhibition (GI50). As for the experimental part: To establish an in cell kinase assay for MerTK kinase, the IL-3 dependent Ba/F3 cells of murine lymphoid origin was transfected with CD8-MerTK. […] For a routine cellular assay, Ba/F3-CDM cells were seeded at 2,000 cells per well in 384-well cell culture plate containing DMEM/10% FBS culture media and incubated for 24 hours before addition of compounds pre-diluted in culture media. Following compound treatment, cells were further incubated for 48 hours and the proliferation was measured. To discriminate a Ba/F3 growth inhibition by a specific inhibition of MerTK kinase following compound treatment vs growth inhibition due to a non-specific unintended cytotoxicity of compounds, we routinely carried out control sets of Ba/F3 cells in parallel that grown in IL3-supplemented growth media. In the presence of IL-3, the proliferation of Ba/F3 is no longer dependent on the MerTK activity. Cell growth and proliferation was measured with Celltiter-Glo™ system (Promega, USA) according to the manufacturer's instruction. The half-maximal growth inhibitory concentration (GI50) value was calculated with Prism6.0 software (GraphPad, USA).
For orientation: Cellular ATP, detected with luciferase, serves as a proxy for viable cell number.

Assay [2] deals with human c-MER catalytic domain (Homo sapiens (Human), UniProt Q12866). Kind of assay: LanthaScreen TR-FRET kinase assay, c-MER. The following applies: read-out: Mer TK inhibition (IC50); Biochemical IC50, TR-FRET, 10 uM ATP.
Chain of human c-MER catalytic domain (Q12866 587-858): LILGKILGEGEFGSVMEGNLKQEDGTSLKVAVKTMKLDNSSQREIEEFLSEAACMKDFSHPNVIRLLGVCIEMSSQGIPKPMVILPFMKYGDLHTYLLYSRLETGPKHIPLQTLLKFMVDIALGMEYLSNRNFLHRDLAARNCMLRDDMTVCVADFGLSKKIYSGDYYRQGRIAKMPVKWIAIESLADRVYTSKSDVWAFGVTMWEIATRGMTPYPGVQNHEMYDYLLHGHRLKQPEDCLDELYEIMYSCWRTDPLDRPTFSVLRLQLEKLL

Experimental findings from US10125118B2, “Heteroaryl compounds and their use as therapeutic drugs” (Dong-A Socio Holdings Co., Ltd., priority 2015, dated 2018) are described below.

SMILES strings stand for the structures. pIC50: −log10 of the molar value.

In general, GI50 refers to the concentration at which growth is held to half of that of the control. Broadly, the pIC50 is the IC50 on a negative log10 scale, so that one unit is a factor of ten. For `CCc1cc(CO[C@H]2CNC[C@@H]2NC(=O)c2cc(-c3ccc(CO)cc3)cnc2N)ccc1C` [Example 389, 2-amino-N-((3S,4S)-4-((3-ethyl-4-methylbenzyl)oxy)pyrrolidin-3-yl)-5-(4-(hydroxymethyl)phenyl)nicotinamide], in assay [1], the GI50 fell in the range of 100 to 500 nM. Besides, the pIC50 in assay [2] is over 8.00.
For `CC(c1ccc(-c2ccc(CO[C@H]3CCC[C@@H]3NC(=O)c3cc(-c4cnn(C)c4)cnc3N)cc2)cc1)N1C[C@@H](C)N(CCO)[C@@H](C)C1` (some centres unmarked) [Example 211], in that order: under 100 nM and over 8.00.
For `C[C@@H]1CN(C)CCN1Cc1ccc(-c2ccc(CO[C@H]3CCC[C@@H]3NC(=O)c3cc(-c4cnn(C)c4)cnc3N)cc2)cc1` [Example 187, 2-amino-N-((1S,2S)-2-((4′-(((R)-2,4-dimethylpiperazin-1-yl)-methyl)-[1,1′-biphenyl]-4-yl)methoxy)cyclopentyl)-5-(1-methyl-1H-pyrazol-4-yl)-nicotinamide], in assay [1], the GI50 is under 100 nM. For the same molecule, the pIC50 in assay [2] was over 8.00.
With `CN1CCN(Cc2ccc(-c3ccc(CO[C@H]4COC[C@@H]4NC(=O)c4cc(-c5cnn(C)c5)cnc4N)cc3)cc2C(F)(F)F)CC1` [Example 449, 2-amino-5-(1-methyl-1H-pyrazol-4-yl)-N-((3S,4R)-4-((4′-((4-methylpiperazin-1-yl)methyl)-3′-(trifluoromethyl)-[1,1′-biphenyl]-4-yl)methoxy)-tetrahydrofuran-3-yl)nicotinamide], the GI50 in assay [1] is under 100 nM. Also, the pIC50 in assay [2] is over 8.00.
As for `Cn1cc(-c2cnc(N)c(C(=O)N[C@H]3CCC[C@@H]3OCc3ccc(-c4ccc(CC5CCN(CC(N)=O)CC5)cc4)cc3)c2)cn1` [Example 242, 2-amino-N-((1S,2S)-2-((4′-((1-(2-amino-2-oxoethyl)piperidin-4-yl)methyl)-[1,1′-biphenyl]-4-yl)methoxy)cyclopentyl)-5-(1-methyl-1H-pyrazol-4-yl)-nicotinamide], the GI50 in assay [1] was under 100 nM. Also, the negative-log IC50 (pIC50) in assay [2] was over 8.00.
For `CC(c1ccc(-c2ccc(CO[C@H]3CCC[C@@H]3NC(=O)c3cc(-c4cccnc4F)cnc3N)cc2)cc1)N1CCN(CCO)CC1` (stereo partly drawn) [Example 238, 6-amino-2′-fluoro-N-((1S,2S)-2-((4′-(1-(4-(2-hydroxyethyl)-piperazin-1-yl)ethyl)-[1,1′-biphenyl]-4-yl)methoxy)cyclopentyl)-[3,3′-bipyridine]-5-carboxamide], in that order: under 100 nM and over 8.00.
The corresponding values for `Cn1cc(-c2cnc(N)c(C(=O)N[C@H]3CCC[C@@H]3OCc3ccc(-c4ccc(N5CCNCC5)nc4)cc3)c2)cn1` [Example 147, 2-amino-5-(1-methyl-1H-pyrazol-4-yl)-N-((1S,2S)-2-((4-(6-(piperazin-1-yl)pyridin-3-yl)benzyl)oxy)cyclopentyl)nicotinamide] are 100 to 500 nM and over 8.00.
On to `CN1CCN(Cc2ccc(-c3ccc(CO[C@H]4CCC[C@@H]4NC(=O)c4nc(-c5cnn(C)c5)cnc4N)cc3)cc2)CC1` [Example 194, 3-amino-6-(1-methyl-1H-pyrazol-4-yl)-N-((1S,2S)-2-((4′-((4-methylpiperazin-1-yl)methyl)-[1,1′-biphenyl]-4-yl)methoxy)cyclopentyl)pyrazine-2-carboxamide], for which, in assay [1], the GI50 was under 100 nM. Besides, in assay [2], the pIC50 is over 8.00.
For the molecule `Cn1cc(-c2cnc(N)c(C(=O)N[C@H]3CCC[C@@H]3OCc3ccc(C#CCCCCO)cc3)c2)cn1` [Example 251, 2-amino-N-((1S,2S)-2-((4-(6-hydroxyhex-1-yn-1-yl)benzyl)oxy)-cyclopentyl)-5-(1-methyl-1H-pyrazol-4-yl)nicotinamide], the 50% growth inhibitory concentration (GI50) in assay [1] is over 1000 nM. The pIC50 in assay [2] was over 8.00.
The corresponding values for `Cc1cscc1-c1cnc(N)c(C(=O)N[C@H]2CCC[C@@H]2OCc2ccc(-c3ccc(CN4CCN(C)CC4)cc3)cc2)c1` [Example 385, 2-amino-N-((1S,2S)-2-((4′-((4-methylpiperazin-1-yl)methyl)-[1,1′-biphenyl]-4-yl)methoxy)cyclopentyl)-5-(4-methylthiophen-3-yl)nicotinamide] are 100 to 500 nM and over 8.00.
The corresponding values for `CC(c1ccc(-c2ccc(CO[C@H]3CNC[C@@H]3NC(=O)c3cc(-c4cnn(C)c4)cnc3N)cc2)cc1)N1CCN(C)CC1` (stereo partly drawn) [Example 438, 2-amino-5-(1-methyl-1H-pyrazol-4-yl)-N-((3S,4S)-4-((4′-(1-(4-methylpiperazin-1-yl)ethyl)-[1,1′-biphenyl]-4-yl)methoxy)pyrrolidin-3-yl)-nicotinamide] are 500 to 1000 nM and over 8.00.
The corresponding values for `C[C@H](c1ccc(-c2ccc(CO[C@H]3CCC[C@@H]3NC(=O)c3cc(-c4cnn(C)c4)cnc3N)cc2)cc1)N1CCNCC1` [Example 213, 2-amino-5-(1-methyl-1H-pyrazol-4-yl)-N-((1S,2S)-2-((4′-((R)-1-(piperazin-1-yl)ethyl)-[1,1′-biphenyl]-4-yl)methoxy)cyclopentyl)nicotinamide] are 100 to 500 nM and over 8.00.
For `C[C@@H]1CN(C)[C@@H](C)CN1Cc1ccc(-c2ccc(CO[C@H]3CCC[C@@H]3NC(=O)c3cc(-c4cnn(C)c4)cnc3N)cc2)cc1` [Example 192, 2-amino-5-(1-methyl-1H-pyrazol-4-yl)-N-((1S,2S)-2-((4′-(((2R,5S)-2,4,5-trimethylpiperazin-1-yl)methyl)-[1,1′-biphenyl]-4-yl)methoxy)cyclopentyl)nicotinamide], in assay [1], the GI50 was under 100 nM. In assay [2], the negative logarithm of the IC50 (pIC50) was over 8.00.
For `CN1CCN(Cc2ccc(-c3ccc(CO[C@H]4CCC[C@@H]4NC(=O)c4cc(-c5ccc(F)c(F)c5)cnc4N)cc3)cc2)CC1` [Example 364], in that order: under 100 nM and over 8.00.
For `CN1CCN(Cc2ccc(-c3ccc(CO[C@H]4CCC[C@@H]4NC(=O)c4cc(-c5cnn(C)c5)cnc4N)c(F)c3)cc2)CC1` [Example 156, 2-amino-N-((1S,2S)-2-((3-fluoro-4′-((4-methylpiperazin-1-yl)-methyl)-[1,1′-biphenyl]-4-yl)methoxy)cyclopentyl)-5-(1-methyl-1H-pyrazol-4-yl)-nicotinamide], in that order: under 100 nM and over 8.00.
The corresponding values for `CNc1ccc(-c2ccc(CO[C@H]3CCC[C@@H]3NC(=O)c3cc(-c4cnn(C)c4)cnc3N)cc2)cc1` [Example 136, 2-amino-5-(1-methyl-1H-pyrazol-4-yl)-N-((1S,2S)-2-((4′-(methylamino)-[1,1′-biphenyl]-4-yl)methoxy)cyclopentyl)nicotinamide] are 100 to 500 nM and over 8.00.
As for `C[C@@H]1CN(Cc2ccc(-c3ccc(CO[C@H]4CCC[C@@H]4NC(=O)c4cc(-c5cnn(C)c5)cnc4N)c(F)c3)cc2)C[C@H](C)N1C` [Example 157, 2-amino-N-((1S,2S)-2-((3-fluoro-4′-((cis-3,4,5-trimethylpiperazin-1-yl)methyl)-[1,1′-biphenyl]-4-yl)methoxy)cyclopentyl)-5-(1-methyl-1H-pyrazol-4-yl)-nicotinamide], the GI50 in assay [1] was 100 to 500 nM. In addition, the negative logarithm of the IC50 (pIC50) in assay [2] is over 8.00.
For `CC(c1ccc(-c2ccc(CO[C@H]3CN(C)C[C@@H]3NC(=O)c3cc(-c4cnn(C)c4)cnc3N)cc2)cc1)N1CCN(CCO)CC1` (stereo partly drawn) [Example 443, 2-amino-N-((3S,4S)-4-((4′-(1-(4-(2-hydroxyethyl)piperazin-1-yl)ethyl)-[1,1′-biphenyl]-4-yl)methoxy)-1-methylpyrrolidin-3-yl)-5-(1-methyl-1H-pyrazol-4-yl)nicotinamide], in that order: under 100 nM and over 8.00.
On to `CN1CCN(CCc2ccc(-c3ccc(CO[C@H]4CCC[C@@H]4NC(=O)c4cc(-c5cnn(C)c5)cnc4N)cc3)cc2)CC1` [Example 161, 2-amino-5-(1-methyl-1H-pyrazol-4-yl)-N-((1S,2S)-2-((4′-(2-(4-methylpiperazin-1-yl)ethyl)-[1,1′-biphenyl]-4-yl)methoxy)cyclopentyl)nicotinamide], for which the GI50 in assay [1] is under 100 nM. The negative logarithm of the IC50 (pIC50) in assay [2] is over 8.00.
The corresponding values for `Cc1cc(-c2ccc(CO[C@H]3CCC[C@@H]3NC(=O)c3cc(-c4cnn(C)c4)cnc3N)cc2)ccc1CN1CCN(C)CC1` [Example 198, 2-amino-5-(1-methyl-1H-pyrazol-4-yl)-N-((1S,2S)-2-((3′-methyl-4′-((4-methylpiperazin-1-yl)methyl)-[1,1′-biphenyl]-4-yl)methoxy)cyclopentyl)-nicotinamide] are under 100 nM and over 8.00.
For `CN1CCN(C(C)(C)c2ccc(-c3ccc(CO[C@H]4CCC[C@@H]4NC(=O)c4cc(-c5ccc(F)nc5)cnc4N)cc3)cc2)CC1` [Example 225, 6-amino-6′-fluoro-N-((1S,2S)-2-((4′-(2-(4-methylpiperazin-1-yl)propan-2-yl)-[1,1′-biphenyl]-4-yl)methoxy)cyclopentyl)-[3,3′-bipyridine]-5-carboxamide], in that order: 100 to 500 nM and over 8.00.
For `CCN1CCN(Cc2ccc(-c3ccc(CO[C@H]4CCC[C@@H]4NC(=O)c4cc(-c5cnn(C)c5)cnc4N)cc3)cc2)CC1` [Example 183, 2-amino-N-((1S,2S)-2-((4′-((4-ethylpiperazin-1-yl)methyl)-[1,1′-biphenyl]-4-yl)methoxy)cyclopentyl)-5-(1-methyl-1H-pyrazol-4-yl)nicotinamide], in that order: under 100 nM and over 8.00.
